According to patent US20210322396A1, “COMPOSITIONS WITH SYNERGISTIC PERMEATION ENHANCERS FOR DRUG DELIVERY” (Children's Medical Center Corporation, priority 2018, published 2021):
Values joined by “and” are separate entries in the source; they are usually repeats but may differ in a detail not shown here. Equal entries are not always repeated. Structures can show the parent of a compound that is named as a salt. Where two headings read alike, the source gives them in different places.

Tests used:
sodium current = conditions: read-out: KI, inhibition of sodium current, cited from earlier work
action potentials = conditions: read-out: median inhibitory concentration, amplitudes of action potentials, cited from earlier work
[1] = Concentration-response curve fitting and isobolographic analysis of CPEs on VCIP48; format: in vitro ADME, chinchilla
physchem = conditions: water
H. influenza = conditions: cited from earlier work
S. pneumoniae = conditions: cited from earlier work
[2] = three-parameter hyperbolic fit of CPE concentration-VCIP48 curve

CCCCN1CCCCC1C(=O)Nc1c(C)cccc1C (stereo not drawn) [bupivacaine]
Ki (sodium current; in vitro): 25 µM
IC50 (action potentials; in vitro): 180 µM

NC1=N[C@H](O)[C@H]2[C@H]3O[C@]4(O)O[C@@H]([C@@H](O)[C@@]2(N1)[C@@H]4O)[C@]3(O)CO [TTX, Tetrodotoxin]
Ki (sodium current): 0.001 to 0.002 µM
IC50 (action potentials): 0.005 to 0.006 µM

C=C(C)[C@H]1CC=C(C)CC1 [LIM, limonene]
CPE concentration at which the permeation enhancement effect plateaued [1]: around 4%
Emax (maximal VCIP48), derived from Equation (1) [1]: 0.41 mg
concentration required to achieve VCIP48=0.22 mg (equivalent dose) [1]: ~1.8%
concentration required to achieve a VCIP48 of 0.4 mg (equivalent dose) [1]: ~4%
p (Hill coefficient) [1]: 5.33

CCCCCCCCCCCCOS(=O)(=O)[O-].[Na+] [SDS, Sodium dodecyl sulfate]
Emax (peak VCIP48), derived experimentally ([1]; experimentally determined peak effect, sulfate): 0.4 mg and 0.40 ^b mg
concentration required to achieve VCIP48=0.24 mg (equivalent dose) ([1]; single CPE in CPPB): 10%
p (Hill coefficient) [1, 2]: 0.82 ^
Emax (maximal VCIP48), derived from Equation (1) ([1]; three-parameter hyperbolic fit of CPE concentration-VCIP48 curve, sulfate): 0.65 mg and 0.65 ^a mg

CCCCN1CCCCC1C(=O)Nc1c(C)cccc1C (stereo not drawn) [BUP, bupivacaine hydrochloride]
soluble concentration (in 12%[P407-PBP] solution, weight by volume): up to 4%
effect of pH on solubility in water (pH of the formulation tuned in the range of 3 to 9): not affected
solubility (physchem): ≥ 20 mg/mL
Emax relative to that of LIM [1]: 9.76%
Emax relative to that of SDS [1]: 6.15%
CPE concentration at which the permeation enhancement effect plateaued ([1]; Cip permeation, CPPB): ~1%
concentration required to achieve VCIP48=0.22 mg (equivalent dose) ([1]; single CPE in CPPB): infinite
concentration required to achieve VCIP48=0.24 mg (equivalent dose) ([1]; single CPE in CPPB): infinite
concentration required to achieve a VCIP48 of 0.4 mg (equivalent dose) ([1]; single CPE in CPPB): infinite
Emax (maximal VCIP48), derived from Equation (1) [1, 2]: 0.04 mg
p (Hill coefficient) [1, 2]: 2.75

O=C(O)c1cn(C2CC2)c2cc(N3CCNCC3)c(F)cc2c1=O [ciprofloxacin]
minimum inhibitory concentration (H. influenza): about 4 μg/mL
minimum inhibitory concentration (S. pneumoniae): about 4 μg/mL

CCCCN1CCCCC1C(=O)Nc1c(C)cccc1C (stereo not drawn) [BUP-fb, bupivacaine free base]
solubility limit (in pure LIM): ~10%
